Patent US12454514B2, “Quinazolinone compounds” (Cerepeut, Inc., priority 2019, dated 2025)

Tested on: Molt-4 cells
Assay: CellTiter-Glo Luminescent Cell Viability Assay (growth inhibition, 72 hour incubation)
Format: cell-based
Settings: Homo sapiens, 72 hours treatment, CellTiter Glo luminescence
From the text: CellTiter-Glo Luminescent Cell Viability Assay Kit was obtained from Promega. RPMI 1640 was obtained from Invitrogen. Fetal Bovine Serum (FBS) was obtained from Corning. L-glutamine was obtained from Invitrogen. 100× Penicillin-Streptomycin was obtained from HyClone. 0.05% Trypsin-EDTA (T-E) was obtained from Invitrogen. DPBS was obtained from Corning. DMSO was obtained from Sigma. Black 384 well plates were obtained from Greiner. 96-well V bottom plates were obtained from Axygen. For cell seeding on Day “−1”, the density of Molt-4 cells was adjusted according to supplier-recommended information. 50 μL cells were seeded in four 384-well-plates, and 50 μL DPBS was added to the edge wells. On Day 0, test compounds were dissolved in DMSO and stored in a nitrogen cabinet. The stock concentration of the test compounds was 120 mM. The stock concentration of the reference compounds was 10 mM. Test compounds (125 nL in DMSO) were added to the wells and serially diluted by three fold, providing 10 doses in each series with a maximum concentration of 300 μM. Equal volumes of DMSO without test compound were transferred to control rows in the well plate. Using this procedure, the DMSO concentration across the well plate was 0.25% (v/v). On Day 3 (after the cells were treated with the compounds for 72 hours), the plates were equilibrated at room temperature for approximately 30 minutes. 25 μL of CellTiter Glo reagent was added to each well, and the luminescence in each well was measured after 10 min using an ENVISION fluorescence plate reader (PerkinElmer). The calculation formula used for data analysis was: Inhibition %=(Max−Sample Value)/Max*100. Curves were fitted by Prism with a Sigmoidal dose-response (variable slope) model and generated by 4 Parameter Logistic Model or Sigmoidal Dose-Response Model, Y=Bottom+(Top−Bottom)/(1+10^((log EC50−x)*HillSlope)). To evaluate the anti-tumor activity of the compounds, the growth inhibitory effect of the compound was measured in various human cancer cell lines after 72 hour incubation. In the assays, the viability of the Molt-4 cells was greater than 85% during the initial cell plating. All the cell plates met the criteria that the coefficient of variation (CV)<10%. Observed IC50 values are summarized below, along with the observed IC50 value for reference compound 6-chloro-3-(2,4-dichloro-5-methoxyphenyl)-2-mercapto-7-methoxyquinazolin-4(3H)-one.

| Compound | IC50 [nM] |
| --- | --- |
| COc1cc(-n2c(S)nc3cc(OC)c(C4CC4)cc3c2=O)c(Cl)cc1Cl [Compound 9, 6-Cyclopropyl-3-(2,4-dichloro-5-methoxyphenyl)-2-mercapto-7-methoxyquinazolin-4(3H)-one] | < 3000 |
| COc1cc(-n2c(S)nc3c(C4CC4)c(OC)c(Cl)cc3c2=O)c(Cl)cc1Cl [Compound 13, 6-Chloro-8-cyclopropyl-3-(2,4-dichloro-5-methoxyphenyl)-2-mercapto-7-methoxyquinazolin-4(3H)-one] | 3000 to 30000 |
| C=Cc1c(OC)c(Cl)cc2c(=O)n(-c3cc(OC)c(Cl)cc3Cl)c(S)nc12 [Compound 12, 6-Chloro-3-(2,4-dichloro-5-methoxyphenyl)-2-mercapto-7-methoxy-8-vinylquinazolin-4(3H)-one] | > 30000 |
| COc1cc(-n2c(S)nc3cc(C4CC4)c(Cl)cc3c2=O)c(Cl)cc1Cl [Compound 11, 6-Chloro-7-cyclopropyl-3-(2,4-dichloro-5-methoxyphenyl)-2-mercaptoquinazolin-4(3H)-one] | 3000 to 30000 |
| Cc1cc(-n2c(S)nc3ccc(Cl)cc3c2=O)c(Cl)cc1Cl [Compound 10, 6-chloro-3-(2,4-Dichloro-5-methylphenyl)-2-mercaptoquinazolin-4(3H)-one] | 3000 to 30000 |
| COc1cc2nc(S)n(-c3cc(OC)c(OC)cc3Cl)c(=O)c2cc1Cl [Compound 1, 6-Chloro-3-(2-chloro-4,5-dimethoxyphenyl)-2-mercapto-7-methoxyquinazolin-4(3H)-one] | > 30000 |
| COc1ccc2c(=O)n(-c3cc(OC)c(Cl)cc3Cl)c(S)nc2c1 [Compound 5, 3-(2,4-dichloro-5-methoxyphenyl)-2-mercapto-7-methoxyquinazolin-4(3H)-one] | 3000 to 30000 |
| COc1cc2nc(S)n(-c3cc(OC)c(Cl)cc3Cl)c(=O)c2cc1N [Compound 8, 6-Amino-3-(2,4-dichloro-5-methoxyphenyl)-2-mercapto-7-methoxyquinazolin-4(3H)-one] | < 3000 |
| COc1cc(-n2c(S)nc3cc(OC)c(Cl)cc3c2=O)c(Cl)cc1F [Compound 2, 6-Chloro-3-(2-chloro-4-fluoro-5-methoxyphenyl)-2-mercapto-7-methoxyquinazolin-4(3H)-one] | 3000 to 30000 |
| COc1cc2nc(S)n(-c3cc(F)c(Cl)cc3Cl)c(=O)c2cc1Cl [Compound 4, 6-Chloro-3-(2,4-dichloro-5-fluorophenyl)-2-mercapto-7-methoxyquinazolin-4(3H)-one] | 3000 to 30000 |
| COc1cc(-n2c(S)nc3cc(OC)c(OC)cc3c2=O)c(Cl)cc1Cl [Compound 6, 3-(2,4-dichloro-5-methoxyphenyl)-2-mercapto-6,7-dimethoxyquinazolin-4(3H)-one] | < 3000 |
| COc1cc(-n2c(S)nc3cc(OC)c(Cl)cc3c2=O)c(OC)cc1Cl [Compound 3, 6-Chloro-3-(4-chloro-2,5-dimethoxyphenyl)-2-mercapto-7-methoxyquinazolin-4(3H)-one] | 3000 to 30000 |
| COc1cc2nc(S)n(-c3cc(OC)c(Cl)cc3Cl)c(=O)c2cc1O [Compound 7, 3-(2,4-Dichloro-5-methoxyphenyl)-6-hydroxy-2-mercapto-7-methoxyquinazolin-4(3H)-one] | < 3000 |
| COc1cc(-n2c(S)nc3cc(OC)c(Cl)cc3c2=O)c(Cl)cc1Cl [Ref. 1, 6-chloro-3-(2,4-dichloro-5-methoxyphenyl)-2-mercapto-7-methoxyquinazolin-4(3H)-one, reference compound] | 3000 to 30000 |
